Key:
[1] = test system: prostate tumor cell line LNCap (PTEN-mutated); assay: cell-based proliferation assay (MTS), LNCap; conditions: Homo sapiens
Method: (§1) In this assay, a cell-based proliferation assay was performed to evaluate the compounds of the invention in inhibiting growth of cells including the breast tumor cell line MDA468 (PTEN-mutated) ATCC No. HTB-132 or prostate tumor cell line LNCap (PTEN-mutated) ATCC CRL-1740. • (i) On day one, cells were plated in 96-well culture plates. • (ii) On day two, compounds were added to cells at a predetermined concentration. • (iii) On day five, cell proliferation was measured by standard MTS assay protocol as described in S A O'Toole et al., Cancer Detection and Prevention, 27(1), 2003. Results were recorded by A490 absorbance using a 96-well format platereader. • (iv) The MTS results (A490 units) from compound-treated wells were then calculated as % control growth relative to the control (untreated) wells on the same culture plate.

[2] = test system: Spinal cord neuron cultures; assay: spinal cord neuron assay; type: cell-based; conditions: rat E15 spinal cord neurons, compound for 72 h, read-out: EC50 in spinal cord neuron assays
Method: Spinal cord neuron cultures were prepared from embryonic day 15 (E15) rat embryos (Sprague-Dawley, Charles River Laboratories, Wilmington, Mass.). The embryos were collected and their spinal cords were removed in ice-cold phosphate-buffered saline (PBS) without Ca^2+ and Mg^2+. Dissected pieces of spinal cord tissue were pooled together and transferred to an enzymatic dissociation media containing 20 IU/mL papain in Earle's balanced salt solution (Worthington Biochemical, Freehold, N.J.) and incubated for 30 minutes at 37° C. After enzymatic dissociation, the papain solution was aspirated and the tissue mechanically triturated with a fire-polished Pasteur pipette in complete media [Neurobasal Medium with B-27 supplement (Gibco, Grand Island, N.Y.), 100 IU/mL penicillin, 100 μg/mL streptomycin, 3.3 μg/mL aphidicolin, 0.5 mM glutamate] containing 2,000 IU/mL DNase and 10-mg/mL ovomucoid protease inhibitor. Single-cell suspensions in complete media were plated on pre-coated poly-L-ornithine/laminin 96-well plates (Becton-Dickinson, Bedford, Mass.) at a density of 1.0×10^4 cells/well. Spinal cord neurons were maintained for 24 h then exposed to vehicle or various concentrations of compound for 72 h.

human CD4+ T cells [3] = assay: PMA/ionomycin activation assay; type: cell-based; conditions: CD4+ T cells stimulated with PMA and ionomycin, tritiated thymidine incorporation, read-out: EC50, inhibition of proliferation
Method: (§2) In the following assays, human CD4+ T cells were purified by negative selection from peripheral blood lymphocytes using RosetteSep as per manufacture's instructions (StemCell Technologies, Inc. Vancouver, British Columbia).
Proliferation of the compounds was determined using this assay. CD4+ T cells (5×10^5 cells/well) were plated in flat bottomed 96 well microtiter plates in RPMI, 10% fetal calf serum, 2 mM glutamine media and stimulated with PMA (10 ng/mL) and ionomycin (200 ng/mL) in the presence of increasing concentration of compound. Seventy-two hours after activation, 100 μL of culture media was collected for IL-2 determination, an additional 100 μL fresh media was added to each well and cultures labeled with tritiated thymidine (1 μCi/well) for 6 hours. Cultures were harvested and tritiated thymidine incorporation (count per minute, CPM) assessed using a Trilux (Perkin Elmer, Shelton, Conn.). IL-2 production was determined using an ELISA as per manufacture's instructions (R&D Systems, Minneapolis, Minn.).

[4] = test system: Dissociated cortical neuron cultures; assay: cortical neuron assay (neurite outgrowth); type: cell-based; conditions: Cortical neurone, rat E15 cortical neurons, compound for 72 hours, read-out: EC50 in cortical neuron assays
Method: Dissociated cortical neuron cultures were prepared as previously described (Pong et al., 2001). Briefly, embryonic day 15 rat fetuses were collected and dissected in ice-cold PBS. Dissected cortices were pooled together and transferred to an enzymatic dissociation medium containing papain. After 30 minutes, the tissue was mechanically triturated with a fire-polished glass Pasteur pipette. Single-cell suspensions in complete media were seeded on poly-L-ornithine and laminin coated 96-well plates. After 24 hours, cultures were treated with various concentrations of compound for 72 hours. The cultures were then fixed and stained with an anti-tubulin primary antibody (TUJ-1) and a fluorescent-tagged secondary antibody. Neurite outgrowth was determined by using the Enhanced Neurite Outgrowth (ENO) algorithm with the Cellomics ArrayScan and expressed as average neurite length or total neurite length per cell.

human CD4+ T cells [5] = assay: Anti-CD3/-CD28 stimulation and IL-2 re-stimulation assay; type: cell-based
Method: as §2
Tosyl-activated magnetic microspheres (Dynal, Great Neck, N.Y.) were coated with anti-CD3 Ab (1 μg/10^7 microspheres), and anti-CD28Ab (0.5 μg/10^7 microspheres) as described in Blair et al. J. Immunol., 160:12, 1998. Murine IgG was used to saturate the binding capacity of the microspheres (total protein=5 μg/10^7 microspheres). Protein-coated microspheres were added to purified CD4+ T cells (2×10^6 cells/mL, ratio 1 bead: 1 cell) and activated for 72 hours in RPMI, 10% fetal calf serum, 2 mM glutamine media. Cells were harvested, washed, and cultured overnight in fresh media and re-stimulated with IL-2 as described in Bennett et al., J. Immunol. 170:711, 2003. Briefly, overnight rested cells were recounted, plated (10^5 cells/well) in flat-bottomed 96 well microtiter plates and stimulated with 1 ng/mL human IL-2 (R&D Systems, Minneapolis, Minn.) in the presence of increasing concentrations of compound. Seventy-two hours after culture re-stimulation, plates were pulsed with 1 μCi/well tritiated thymidine and incubated for a 6-16 hour period.

[6] = test system: Mesencephalic dopaminergic neuron cultures; assay: dopaminergic (3H-dopamine) uptake assay after MPP+ exposure; type: cell-based; conditions: Neuron, rat E15 mesencephalic dopaminergic neurons, read-out: EC50 in dopaminergic uptake assays
Method: Mesencephalic dopaminergic neuron cultures were prepared as described in Pong et al., J. Neurochem. 69: 986-994, 1997, which is incorporated herein by reference in its entirety. Embryonic day 15 (E15) rat fetuses were collected and dissected in ice-cold phosphate-buffered saline (PBS). The ventral piece of tissue compromising the mesencephalic dopaminergic region was dissected out. Dissected pieces of tissue were pooled together and transferred to an enzymatic dissociation medium containing 20 IU/mL papain in Earle's balanced salt solution (Worthington Biochemical, Freehold, N.J., USA) and incubated for 60 minutes at 37° C. After enzymatic dissociation, the papain solution was aspirated and the tissue mechanically triturated with a fire-polished glass Pasteur pipette in complete medium (equal volumes of minimum essential medium (MEM) and F-12 nutrient mixture (GibcoBRL) supplemented with 0.1 mg/mL apotransferrin and 2.5 μg/mL insulin) containing 2,000 IU/mL DNase and 10 mg/mL ovomucoid protease inhibitor.
For dopamine uptake experiments, single-cell suspensions in complete media were seeded on poly-L-ornithine and laminin coated 24-well plates. The cultures were maintained for seven days prior to experimentation. Cultures were pretreated with various concentrations of the compound for 24 hours, then exposed to 10 mM MPP+ for 1 hour. Following the 1 hour incubation, media was exchanged three times and fresh compound was added for an additional 48 hours.
After 48 hours growth of mesencephalic dopaminergic neuron cultures following MPP+ exposure, high-affinity 3H-dopamine uptake was performed using a modified method described by Prochiantz et al., Nature 293: 570-572, 1981, which is incorporated herein by reference. Cultures were washed with pre-warmed PBS containing 5.6 mM glucose and 1 mM ascorbic acid. Cultures were then incubated for 15 minutes at 37° C. with 50 nM 3H-dopamine (31 Ci/mmol, DuPont-NEN, Wilmington, Del., USA). The cultures were washed twice with buffer and lysed with 0.5 N NaOH. The lysate was transferred to a scintillation vial containing Ultima Gold scintillation cocktail and radioactivity was determined with a liquid scintillation counter. Alternatively, culture lysates can be washed twice with buffer, incubated for 2 hours at room temperature with Optiphase Supermix scintillation cocktail (Wallac Scintillation Products, Gaithersburg, Md., USA), and radioactivity measured with a liquid scintillation counter.

[7] = test system: breast tumor cell line MDA468 (PTEN-mutated); assay: cell-based proliferation assay (MTS), MDA468
Method: as §1

- IC50 [1]: < 10 nM
- EC50 [2]: < 1000 nM
- IC50 (human CD4+ T cells [5]; CD4+ T cells activated with anti-CD3/anti-CD28, re-stimulated with 1 ng/mL human IL-2, read-out: IC50, inhibition of IL-2 production): < 1000 nM
- EC50 [6]: < 1000 nM
- IC50 [7]: < 10 nM
Compound: CO[C@H]1C[C@@H]2CC[C@@H](C)[C@@](O)(O2)C(=O)C(=O)N2CCCC[C@H]2C(=O)O[C@H]([C@H](C)C[C@@H]2CC[C@@H](O)[C@H](OC)C2)CC(=O)[C@H](C)/C=C(\C)[C@@H](O)[C@@H](OC)C(=O)[C@H](C)C[C@H](C)[C@@H]2C=C[C@H](/C=C/1C)ON2c1ccccc1 [Example 1, 9,27-dihydroxy-3-{2-[4-hydroxy-3-methoxycyclohexyl]-1-methylethyl}-10,21-dimethoxy-6,8,12,14,20,26-hexamethyl-37-phenyl-4,9,10,12,13,14,15,18,21,22,23,24,25,26,27,32,33,34,34a-nonadecahydro-3H-23,27-epoxy-18,15-(epoxyimino)pyrido[2,1-c][1,4]oxazacyclohentriacontine-1,5,11,28,29(6H,31H)-pentone]
- EC50 (human CD4+ T cells [3]): 200 to 4900 nM
- EC50 [4]: < 1000 nM
- IL-2 production compared with rapamycin and CCI-779 (human CD4+ T cells [5]; CD4+ T cells, IL-2 re-stimulation): commensurate

From patent US7795252B2, “Rapamycin analogues and the uses thereof in the treatment of neurological, proliferative, and inflammatory disorders” (Pfizer Inc., priority 2004, dated 2010)
